Measured values taken from patent publication US20160287558A1, “ORAL PHARMACEUTICAL FORM FOR PREVENTING VASCULAR DISEASES, TABLET AS PHARMACEUTICAL FORM AND GELATIN CAPSULE AS PHARMACEUTICAL FORM” (HYPERMARCAS S.A., priority 2013, published 2016).

Tests used:
[1] = ALLHAT study; cited from earlier work
carbonic anhydrase = settings: cited from earlier work
[2] = Source text: The dissolution curves represent the expression of the release mechanism of active principles within the pharmaceutical form. Thus, it is possible to modulate the release to protect the active pharmaceutical principle, besides of improving the solubilization conditions. Excipients are used to optimize the behavior of the active pharmaceutical principle.

Compound | efficacy and prevention of cardiovascular complications compared with other drugs [1] | inhibition of carbonic anhydrase (carbonic anhydrase) | solubility in water [2]
NS(=O)(=O)c1cc2c(cc1Cl)NCNS2(=O)=O [hydrochlorothiazide] | as effective as other drugs and further prevents more cardiovascular complications than other drugs | very weak inhibitors | –
CCCCc1nc(Cl)c(CO)n1Cc1ccc(-c2ccccc2-c2nn[nH]n2)cc1 [losartan] | – | – | freely soluble
